The text below walks through data of patent US20130017198A1, “MANIPULATION OF CALCIUM CHANNELS TO REGULATE AFTER-DEPOLARIZATION EVENTS IN CARDIAC MYOCYTES” (THE UAB RESEARCH FOUNDATION, priority 2010, published 2013).

“Also recorded” adds a separate entry of the source. Like-named read-outs stand apart in the source and are kept apart here.

For experiment [1], the system named is left atrial appendage (LAA). The experiment in a line: Action potential recording / after-depolarization in paced superfused rat LAA exposed to ATX-II. The note with it: for action potential duration: ~30 nM ATX-II plus LOE-908 or SKF-96365. The source says:
For example, isolated superfused muscles can be impaled with conventional glass microelectrodes of 10 to 30 MΩ resistance; these microelectrodes are filled with a solution of 3 M potassium chloride. Microelectrodes are routinely mounted on 30 μm silver-silver chloride spiral wire to allow for freedom of motion. Following the successful impalement of an individual myocyte, action potentials can be recorded with DC coupling at the center of the ring as the difference in voltage between the intracellular microelectrode and the extracellular silver-silver chloride reference electrode. Electrical signals are passed through a high-impedance capacitance-compensation preamplifier and are recorded on a personal computer at a sampling rate of […]. Subsequent data analysis of the action potentials of these muscles is performed using standard software (for an example of such a protocol, see Huang J et al., “Restitution properties during ventricular fibrillation in the in situ swine heart” Circulation 110:3161-3167 (2004), which is hereby incorporated by reference only for such teaching).
(§1) To determine whether ATX-II prolongs action potential duration and provokes after-depolarization and after-contractions, paced isolated rat LAA were superfused at 30° C., impaled with glass microelectrodes, and their action potentials were recorded. ATX-II was then added to the superfusate at about 30 nM and action potentials were recorded again.
A series of experiments was performed to test the hypothesis that the calcium source for after-depolarization is the ARC channel. To test whether after-contractions and after-depolarization require ARC or SOCC activity, experiments were performed with the ARC channel inhibitor LOE-908 and with the SOCC inhibitor SKF-96365. Rat LAA were superfused at 30° C. and exposed to ˜30 nM ATX-II. After 10-15 minutes, these muscles produced steady-state after-contractions, prolonged action potential duration and after-depolarization as shown previously.

In experiment [2] the test system is isolated rat cardiac muscle. The experiment in a line: After-contractions in isolated rat cardiac muscle incubated with ATX-II and CPLA2 inhibitors. Conditions: for IC50: isolated rat cardiac muscle incubated with ATX-II, read-out: IC50 (frequency of aftercontractions). The protocol:
In a separate experiment, isolated rat cardiac muscle was incubated with ATX-II in the presence of varying concentrations of amylcinnamoyl-anthranilic acid.

Experiment [3] concerns the target T1, CPLA2 (Homo sapiens, UniProt P47712).
T1 sequence (P47712 1-749): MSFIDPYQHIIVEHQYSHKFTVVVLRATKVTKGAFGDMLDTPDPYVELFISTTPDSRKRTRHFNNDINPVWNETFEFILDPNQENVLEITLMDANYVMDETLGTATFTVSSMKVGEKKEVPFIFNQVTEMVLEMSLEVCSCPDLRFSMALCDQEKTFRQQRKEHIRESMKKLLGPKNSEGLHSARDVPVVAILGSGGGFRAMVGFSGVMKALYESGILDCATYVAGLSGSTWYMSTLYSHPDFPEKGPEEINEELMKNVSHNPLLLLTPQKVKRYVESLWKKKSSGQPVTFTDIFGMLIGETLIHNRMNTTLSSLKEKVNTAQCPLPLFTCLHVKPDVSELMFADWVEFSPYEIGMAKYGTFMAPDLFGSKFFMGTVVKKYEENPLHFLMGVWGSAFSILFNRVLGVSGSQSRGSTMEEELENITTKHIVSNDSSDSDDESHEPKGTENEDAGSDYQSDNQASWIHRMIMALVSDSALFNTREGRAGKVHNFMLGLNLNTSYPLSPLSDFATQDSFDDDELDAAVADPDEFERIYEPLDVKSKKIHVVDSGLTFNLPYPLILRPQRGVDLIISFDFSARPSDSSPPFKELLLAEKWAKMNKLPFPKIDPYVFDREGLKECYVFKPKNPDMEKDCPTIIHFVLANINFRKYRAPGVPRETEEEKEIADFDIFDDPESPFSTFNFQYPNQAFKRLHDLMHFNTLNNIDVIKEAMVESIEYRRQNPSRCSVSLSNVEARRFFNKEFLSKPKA
The note with it: selective inhibitor of CPLA2; cited from earlier work.

In experiment [4] the test system is CPLA2 activity in vivo. The note with it: cited from earlier work.
Experiment [5] deals with left atrial appendage (LAA). The experiment in a line: ATX-II-induced after-contractions (mechanical activity) in paced superfused rat left atrial appendage. The protocol: as §1
The LAA was externally paced at 1 Hz throughout.
A series of experiments was performed to test the hypothesis that the calcium source for after-depolarization is the ARC channel. To test whether after-contractions and after-depolarization require ARC or SOCC activity, experiments were performed with the ARC channel inhibitor LOE-908 and with the SOCC inhibitor SKF-96365. Rat LAA were superfused at 30° C. and exposed to ˜30 nM ATX-II.

The subject of experiment [6] is left atrial appendage (LAA). The experiment in a line: Abnormal automatic activity of LAA at high ATX-II concentration. Further details: species or system rat. The protocol: Although moderate concentrations of ATX-II appear to cause after-contractions, high concentrations of ATX-II cause abnormal automatic activity. To further test the hypothesis that after-contractions occur via a separate mechanism from abnormal automatic activity, LAA were exposed to high concentrations (60 nM) of ATX-II. The LAA were then exposed to one of 40 μM LOE-908 without pacing, 20 μM SKF-96365 with 1 Hz pacing, or 40 μM SKF-96365 with 1 Hz pacing.

Experiment [7] concerns the target T2, ARC channel (Rattus norvegicus, UniProt Q5M848+Q6AXR8).
T2 construct: from tissue; host or cells: rat left atrial appendage (LAA) muscle
The experiment in a line: Effect on ARC channel activity.

For experiment [8], the target named is T3, store-operated calcium channel (SOCC) (Rattus norvegicus, UniProt Q5M848).
T3 construct: from tissue; host or cells: rat left atrial appendage (LAA) muscle
T3 sequence (Q5M848 whole entry): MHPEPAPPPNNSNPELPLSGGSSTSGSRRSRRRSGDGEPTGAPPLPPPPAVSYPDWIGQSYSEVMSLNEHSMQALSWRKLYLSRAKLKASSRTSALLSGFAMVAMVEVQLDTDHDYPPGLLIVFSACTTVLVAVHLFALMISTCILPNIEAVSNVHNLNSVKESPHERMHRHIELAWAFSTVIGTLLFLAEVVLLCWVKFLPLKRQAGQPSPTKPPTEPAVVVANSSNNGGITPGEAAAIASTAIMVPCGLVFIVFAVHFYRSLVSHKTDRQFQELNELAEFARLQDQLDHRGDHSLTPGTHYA
The experiment in a line: Effect on store-operated calcium channel activity.

Experiment [9] relates to left atrial appendage (LAA). The experiment in a line: Abnormal automatic activity produced by 2-aminoethoxy diphenylborate (SOCC activator) in calcium-loaded LAA. The note with it: calcium-loaded LAA treated with 2-aminoethoxy diphenylborate. The protocol:
To further test the hypothesis that the calcium source for after-depolarization is not the SOCC, calcium-loaded LAA were treated with 2-aminoethoxy diphenylborate (an activator of the SOCC) to produce abnormal automatic activity. The LAA were then treated with either LOE-908 or SKF-96365.

[10] abbreviates: LAA pre-treated with the compound, then ATX-II.
Where [11] appears, read: increasing concentrations, ~30 nM ATX-II, rat LAA at 30° C.
Setting [12] is: increasing concentrations, ~30 nM ATX-II, data not shown.
[13] abbreviates: 0.6 μM ryanodine, after steady-state ATX-II after-contractions.

In general, IC50 refers to the concentration that inhibits the measured activity by half.

T2 sequence (Q5M848 whole entry, other chains not shown): as the sequence (Q5M848 whole entry) above

`CCCCCc1ccc(/C=C/C(=O)Nc2ccccc2C(=O)O)cc1` [ACA]: in [1], the after-depolarization entry is on record as “suppress after-depolarization” and the “concentration as low as which after-depolarization is suppressed” value was 10 µM. In experiment [1] (listed as amylcinnamoyl-anthranilic acid), the after-depolarization result is recorded as “effectively inhibit after-depolarization”. Also, in experiment [2], the after contractions result is on record as “suppress after contractions”, the “concentration as low as which after contractions are suppressed” value came to 10 µM and the IC50 was 10 ± 4.5 µM. The frequency of aftercontractions entry in [2] (0-50 μM of ACA) is reported as “decrease with increasing concentration”.

In the case of `O=C(CCc1ccc(OCCS(=O)(=O)CCOC(c2ccc(Cl)cc2)c2ccc(Cl)cc2)cc1)C(F)(F)F` [BMS-229724, 4-[4-[2-[2-[bis(4-chlorophenyl)methoxy]ethyl-sulfonyl]ethoxy]phenyl]-1,1,1-trifluoro-2-butanone], the IC50 in experiment [3] is 2.8 µM. Besides, the “CPLA2 activity in vivo / skin inflammation” value in [4] is “suppression of skin inflammation”.

Consider `COc1ccc(S(=O)(=O)Nc2ccccc2CN(C)C/C=C/c2ccc(Cl)cc2)cc1` [KN-92], for which, in experiment [5] (setting [10]), the after-contractions result is recorded as “does not prevent after-contractions; also recorded: does not suppress after-contractions”.

Regarding `COc1ccc(S(=O)(=O)N(CCO)c2ccccc2CN(C)C/C=C/c2ccc(Cl)cc2)cc1` [KN-93], the after-contractions result in [5] (setting [10]) is recorded as “do not produce after-contractions; also recorded: suppression of after-contractions”.

Regarding `COc1cc2c(cc1OC)C(C(C(=O)N(CCc1ccc(OC)c(OC)c1OC)CCc1ccc(OC)c(OC)c1OC)c1ccccc1)=NCC2` (stereo not drawn) [LOE-908], the ectopic contractions result in experiment [5] (20 μM) is “no ectopic contractions are observed”. Also, the “concentration as low as which ectopic contractions are effectively reduced” value in experiment [5] (cardiac muscle) came to 1 µM. Moreover, the after-contractions entry in [5] (setting [11]) was “suppressed after-contractions in a dose-dependent manner”. Further, the “concentration as low as which after-depolarization is effectively reduced” value in experiment [1] was determined as 1 µM. Further, the after-depolarization result is on record as “no after-depolarization is observed” in experiment [1] (20 μM) and “The same was observed” in [1] (setting [12]). In addition, in experiment [1], the action potential duration entry is given as “remained prolonged”. In addition, in experiment [6] (60 nM ATX-II, 40 μM LOE-908 without pacing), the abnormal automatic activity entry is listed as “failed to suppress abnormal automatic activity”. Besides, the ARC channel activity result in [7] is “inhibit the activity of the ARC channel”. The “store-operated calcium channel (SOCC) activity” value in [8] is “no effect on the activity of the store-operated calcium channel”.

`COc1ccc(CCCOC(Cn2ccnc2)c2ccc(OC)cc2)cc1` (stereo not drawn) [SKF-96365]: the after-contractions result in experiment [5] (setting [11]) is given as “suppressed after-contractions in a dose-dependent manner”. Further, the after-depolarization entry in experiment [1] (setting [12]) is recorded as “The same was observed”. Moreover, the action potential duration entry in experiment [1] was “remained prolonged”. In addition, the abnormal automatic activity entry in [6] (60 nM ATX-II, 20 μM or 40 μM SKF-96365 with 1 Hz pacing) is recorded as “either reduced or eliminated abnormal automatic activity”. The “rate of spontaneous contractions caused by activation of the SOCC” value in [9] is “reduces the rate of spontaneous contractions”.

Consider `COc1cccc2c1cc([N+](=O)[O-])c1c(C(=O)O)cc3c(c12)OCO3` [aristolochic acid, 8-methoxy-6-nitrophenanthro[3,4-d][1,3]dioxole-5-carboxylic acid], for which the after-depolarization result in experiment [1] was “effectively inhibit after-depolarization; also recorded: suppress after-depolarization”. In addition, in experiment [2], the after contractions entry is reported as “suppress after contractions” and the IC50 turned out to be 31 ± 5 µM.

With `COc1ccc(CCN(C)CCCC(C#N)(c2ccc(OC)c(OC)c2)C(C)C)cc1OC` (stereo not drawn) [verapamil], in experiment [5] (10 μM verapamil, paced at 1 Hz, steady-state ATX-II after-contractions), the production of after-contractions result is recorded as “did not affect the production of after-contractions”.

For the compound “ATX-II: Anemonia sulcata toxin, sodium channel regulator that increases the late sodium current; arrhythmic agent”, the “concentration inducing arrhythmia and after-depolarization” value in experiment [5] lay in the range of 5 to 60 nM. The “after-contractions following each paced contraction” value in [5] (30 nM ATX-II, LAA paced at 1 Hz) is listed as “after-contractions are observed”. Also, in experiment [5] (KH buffer with added glucose), the “concentration below which the ability to induce arrhythmia starts to decrease” value was in the range of 10 to 50 nM. The “action potential duration and early after-depolarization” value in experiment [1] (30 nM ATX-II, paced isolated rat LAA superfused at 30° C.) is “produced prolonged action potential duration and produced early after-depolarization during repolarization”. Besides, the “rate of rapid contraction in the absence of pacing” value in experiment [6] (60 nM ATX-II, FIG. 8A) was determined as 4 Hz. Moreover, the “rate of automatic activity persisting in the absence of pacing” value in experiment [6] (60 nM ATX-II, FIG. 8B) was 2.7-3.3 Hz. The after-contractions entry in experiment [6] (60 nM ATX-II, left atria paced at 1 Hz) is “displayed after-contractions”. Besides, the abnormal automatic activity result in [6] (higher concentration of ATX-II) is “displayed abnormal automatic activity”.

On to methyl-β-cyclodextrin, for which the after-contractions result in experiment [5] (10 mM MβC superfusion then wash, ~30 nM ATX-II, 20 min recording) was “produced no after-contractions”. Besides, in [5] (cardiac muscle), the “concentration as low as which ectopic contractions are effectively eliminated” value came to 10 mM. Besides, the “concentration as low as which after-depolarization is effectively eliminated” value in [1] is listed as 10 mM. Besides, in [7], the ARC channel activity result is “completely suppresses ARC channel activity”. Besides, the “store-operated calcium channel (SOCC) activity” value in experiment [8] is recorded as “only reducing the activity of the SOCC to a minor degree”.

Take ryanodine: in [5] (setting [13]), the after-contractions result is “after-contractions continued to occur” and the mechanical force result was “greatly diminished mechanical force”.
